From US20260241036A1, “CHEMOGENETICS-BASED THERAPY FOR NEUROLOGICAL DISORDERS” (GATEWAY BIOTECHNOLOGY, INC., priority 2023, published 2026)

How the values were obtained:
[1] = test system: excitatory neurons of the IC; experiment: Sound-based avoidance detection (SBAD) testing in the chemogenetic model of tinnitus (excitatory DREADD injected into the IC, activated by CNO); assay type: in vivo, C57BL/6J mice
Protocol: (§1) Using a shuttle box divided into two compartments, mice were trained to cross from side to side with sound cues in the “Go” trials and remain still in the absence of sound in the “No-Go” trials for 15 days. […] The sound cues were randomly played as white noise or narrow-band noise at 5, 10, 16, 20, and 32 kHz with sound intensities randomly at 75, 80, or 85 dB. […] Additionally, a hurdle was added on training 11 to reinforce the training. After the 15th training day, mice were tested for 3 days to obtain a baseline score to be compared after noise exposure, as well as retraining for 3 days.
Following the successful completion of training so that mice reached a high percentage of success in the trials, the mice were exposed to a noise-induced trauma for tinnitus. To ensure that the mice still have their hearing, one ear was protected with an ear plug, while the other ear was exposed to the noise. The mice were placed in a sound booth where they were exposed to 120 dB broadband noise at 4-25 kHz for 2-4 hours. Following the noise exposure, the mice were housed for one month, and then tested to see if they have developed tinnitus. In these testing periods, the mice were tested for three days in the shuttle boxes, where they underwent the Go and No-Go trials, however in the No-Go trials the mice were not shocked, as it is expected that mice with tinnitus would cross compartments in the absence of a sound cue. The mice were continued to be shocked in the Go trials in order to ensure that they have retained their hearing and can hear the sound cues. […] To insure there is a significant difference in the No-Go trial scores, chi-square tests were completed comparing the post-noise exposure tests to the baseline tests. However, if tinnitus is not present in the mice, tests were done after waiting one more month, and another if needed.
A chemogenetic-based model was established by using DREADDs to target excitatory neurons of the IC to establish a more reliable and efficient tinnitus model in mice. […]

[2] = SBAD testing of a control group of SBAD trained animals given CNO, to rule out off-target effects of CNO; assay type: in vivo, mice; settings: control group of three SBAD trained animals; CNO IP 5 mg/kg one hour before SBAD testing
Protocol: as §1
A chemogenetic-based model was established by using DREADDs to target excitatory neurons of the IC to establish a more reliable and efficient tinnitus model in mice. Stereotaxic microinjections of excitatory DREADDs [AAV8-CaMKIIa-HM3D-mCherry] were performed in these C57BL/6J mice, similar to previous studies (Saloman et al., 2016; Smith et al. 2016; Horii-Hayashi & Nishi 2021). Coordinates for microinjections were based on the atlas of Paxinos and Watson (2006) (AP: −5.00 mm, ML: +/−1.00 mm, DV: −1.50 mm). Mice were anesthetized with 5% isoflurane and placed in a stereotaxic head frame. During surgery mice were maintained at a 1.5-2% isoflurane level. Hair was removed and a vertical incision was made to expose the skull. The skull was leveled between bregma and lambda. […]

SMILES: C[N+]1([O-])CCN(C2=Nc3cc(Cl)ccc3Nc3ccccc32)CC1 [CNO, Clozapine-N-oxide]
- number of animals tested positive for tinnitus ([1]; of eight animals, one hour after IP injection of CNO, chi-squared, p<0.03): seven
- animals tested positive for tinnitus (share of animals) ([1]; one hour after IP injection of CNO, eight mice with 50 or 150 nL AAV8-CaMKIIa-HM3D-mCherry bilaterally in the IC, chi-squared, p<0.03): 87%
- SBAD No-Go scores post-CNO injections compared to baseline and saline injections ([1]; post-hoc t-tests (Bonferoni adjusted), p<.001, mice with AAV8-CaMKIIa-HM3D-mCherry in the IC): significantly reduced
- Go and No-Go scores post-CNO injections (behavioral side effects of CNO) [2]: remained stable
